{"source": "paper PMC12114375", "about": "“Discovery of Hydrazineyl Amide Derivative of Pseudolaric Acid B for Reprogramming Tumor-Associated Macrophages Against Tumor Growth” (Molecules, 2025)", "test_system": "tumor-infiltrating immune cells in Hepa1-6 tumor", "experiment": "Flow cytometric analysis of tumor-infiltrating immune cells in the Hepa1-6 model", "format": "in vivo, C57 BL/6 mice", "settings": "Hepa1-6 tumor tissue, 25 mg/kg, 2 h after the last treatment", "text": "Encouraged by its intriguing cellular activities, we investigated the anti-tumor effect of compound 12 in vivo. The Hepa1-6 liver cancer model, an immunocompetent macrophage-rich subcutaneous murine tumor model, was thus established. […] To further investigate whether the in vivo anti-tumor effect of compound 12 is associated with its inhibition of pro-tumoral macrophages and consequent activation of anti-tumor CD8^+ T cells, we analyzed the infiltration of macrophages and CD8^+ T cells in the tumor tissue of the Hepa1-6 model.\nAnimal procedures were approved by the Institutional Animal Care and Use Committee of the Shanghai Institute of Materia Medica (approval no. 2024-06-DJ-95). Mice (4–6 weeks old) were housed with five or six mice per cage in a specific pathogen-free room with a 12 h light/dark schedule at 25 °C ± 1 °C and were fed an autoclaved chow diet and water ad libitum. Hepa1-6 cells (2 × 10^6 cells) were subcutaneously implanted in the right flank of C57 BL/6 mice. When the tumors reached a volume of around 50 mm^3, the mice were randomized into the treatment groups. The vehicle groups were given the vehicle alone, and the treatment groups received compound 1 in the indicated doses via intratumoral injections once daily on the indicated days. The tumor volumes and body weights were measured twice per week. Tumor volume (TV) was calculated as follows: TV = (length × width^2)/2. Significant differences between the treated versus the vehicle groups were determined using the Student’s t-test. […] Consequently, the sample size for this treatment group was reduced to 7. Hepa1-6 tumor tissues were minced and digested using a Mouse Tumor Dissociation Kit (Miltenyi, Bergisch Gladbach, Germany). The cells were passed through a 70 μm cell strainer, stained with a fluorescent antibody or the matching isotype controls for 30 min at room temperature, and then tested using a BD CytoFLEX LX (Beckman). […] Viability was determined by staining with either the LIVE/DEAD® Fixable Violet Dead Cell Stain Kit (Invitrogen, Waltham, […], USA) or the Zombie Aqua™ Fixable Viability Kit (Biolegend, San Diego, CA, USA). Data were analyzed using FlowJo10.4 software.\nFigure 4 Compound 12 inhibited Hepa1-6 tumor growth in vivo and remodeled the tumor microenvironment. […] The TVs (A) and body weights (B) are presented as the mean ± SEM. * p < 0.05 vs. the vehicle group, determined by the Student’s t-test. […] The infiltration of CD45^+ cells (C), TAMs (D), CD206^+ TAMs (E), ARG1^+ TAMs (F), CD8^+ T cells (G), GRZB^+ CD8^+ T cells (H), IFN γ^+ CD8^+ T cells (I), and TNF α^+ CD8^+ T cells (J) was tested (n = 8 mice in the vehicle group and n = 7 mice in the 12-treated group). * p < 0.05, ** p < 0.01, *** p < 0.001 vs. the vehicle group, determined by the Student’s t-test. […]", "data": [{"smiles": "COC(=O)C1=CC[C@@]23CC[C@@H]([C@@](C)(/C=C/C=C(\\C)C(=O)NNCCO)OC2=O)[C@@]3(OC(C)=O)CC1", "note": "[compound 12, Methyl(3R,4S,4aS,9aR)-4a-acetoxy-3-((1E,3E)-5-(2-(2-hydroxyethyl)hydrazineyl)-4-methyl-5-oxopenta-1,3-dien-1-yl)-3-methyl-1-oxo-3,4,4a,5,6,9-hexahydro-1H-4,9a-ethanocyclohepta[c]pyran-7-carboxylate]", "values": [{"measurement": "TAMs with the M1-like phenotype (CD86+ TAMs, MHC II+ TAMs)", "value": "marginal upregulation"}, {"measurement": "infiltration of CD8+ T cells and activated (GRZB+, IFNγ+, TNFα+) CD8+ T cells in CD45+ cells", "value": "significantly upregulated"}, {"measurement": "infiltration of total immune cells (CD45+ cells)", "value": "increasing trend"}, {"measurement": "tumor infiltration of total TAMs, CD206+ TAMs and ARG1+ TAMs in CD45+ cells", "value": "significantly reduced"}]}]}
